pEC50: −log10 of the molar value.
Target: human GLP1R (Homo sapiens (Human), UniProt P43220)
Assay: In vitro cAMP signal activation in human GLP1R stably-expressing cell line (hGLP1R-HEK293)
Type: cell-based
Conditions: cAMP concentration in hGLP1R-HEK293; 100% = 1 nM human GLP-1 (7-37)
Description: <Test Example 1> Measurement of In Vitro cAMP Signal Activation of a Compound in Human GLP1R
A human GLP1R stably-expressing cell line (hGLP1R-HEK293) was used in the experiment. The cells were cultured in a Dulbecco's modified Eagle's medium (DMEM) containing 10% fetal bovine serum (Sigma-Aldrich), 100 units/mL penicillin G and 100 μg/mL streptomycin sulfate (Gibco), and 500 μg/mL Geneticin (Gibco), under a moist atmosphere containing 5% CO2, at 37° C.
hGLP1R-HEK293 was seeded in 96 well plates at 2.0×10^4 cells per well and cultured over night. The medium for culturing the cells was changed to 50 μL of Medium A (DMEM, 20 mM HEPES, 0.05% BSA, 0.5 mM 3-isobutyl-1-methylxanthine) the next day, and the cells were incubated at 37° C. for 30 min. Then, 50 μL of Medium B (DMEM, 20 mM HEPES, 0.05% BSA, 0.5 mM 3-isobutyl-1-methylxanthine) containing GLP-1 or the compound was added, and the cells were incubated at 37° C. for an additional 30 min. Then, 100 μL of Assay lysis buffer (Applied Bioscience) was added, and the cells were incubated at 37° C. for 30 min. The cAMP concentration was quantified using cAMP HiRange kit (Cisbio Bioassays).
By setting the cAMP concentration when the human GLP-1 (7-37) was put into action at a concentration of 1 nM to 100%, the cAMP concentration of each well was converted to a reaction rate (%).

Sequence of human GLP1R (P43220 24-463): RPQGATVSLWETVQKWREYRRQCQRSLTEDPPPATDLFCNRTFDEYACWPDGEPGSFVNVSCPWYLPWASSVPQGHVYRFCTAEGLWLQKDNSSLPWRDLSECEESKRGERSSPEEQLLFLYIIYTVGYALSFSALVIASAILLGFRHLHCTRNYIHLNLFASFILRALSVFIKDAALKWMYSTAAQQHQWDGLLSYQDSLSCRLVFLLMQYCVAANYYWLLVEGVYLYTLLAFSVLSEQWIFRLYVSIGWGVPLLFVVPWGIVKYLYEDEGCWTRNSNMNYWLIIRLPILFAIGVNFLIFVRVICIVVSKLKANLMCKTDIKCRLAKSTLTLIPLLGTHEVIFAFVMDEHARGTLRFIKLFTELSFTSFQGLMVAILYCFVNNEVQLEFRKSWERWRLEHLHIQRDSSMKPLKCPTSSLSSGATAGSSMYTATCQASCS

Compound | pEC50
Cc1cc(-n2nc3c(c2-n2ccn(-c4ccc5c(cnn5[C@H]5CCOC5)c4)c2=O)[C@H](C)N(C(=O)c2cc4cc(-c5ccnc(C)c5F)ccc4n2[C@@]2(c4noc(=O)[nH]4)C[C@@H]2C)CC3)cc(C)c1F [Example 14, 3-[(1S,2S)-1-[2-[(4S)-2-(4-fluoro-3,5-dimethylphenyl)-4-methyl-3-[2-oxo-3-[1-[(3S)-oxolan-3-yl]indazol-5-yl]imidazol-1-yl]-6,7-dihydro-4H-pyrazolo[4,3-c]pyridine-5-carbonyl]-5-(3-fluoro-2-methylpyridin-4-yl)indol-1-yl]-2-methylcyclopropyl]-4H-1,2,4-oxadiazol-5-one] | 8.64
Cc1cc(-n2nc3c(c2-n2ccn(-c4ccc5c(cnn5C)c4)c2=O)[C@H](C)N(C(=O)c2cc4cc(-c5ccnc(N(C)C)c5C)ccc4n2[C@@]2(c4noc(=O)[nH]4)C[C@@H]2C)CC3)cc(C)c1F [Example 15, 3-[(1S,2S)-1-[5-[2-(dimethylamino)-3-methylpyridin-4-yl]-2-[(4S)-2-(4-fluoro-3,5-dimethylphenyl)-4-methyl-3-[3-(1-methylindazol-5-yl)-2-oxoimidazol-1-yl]-6,7-dihydro-4H-pyrazolo[4,3-c]pyridine-5-carbonyl]indol-1-yl]-2-methylcyclopropyl]-4H-1,2,4-oxadiazol-5-one] | 8.66
COCCn1ncc2cc(-n3ccn(-c4c5c(nn4-c4cc(C)c(F)c(C)c4)CCN(C(=O)c4cc6cc(C7CCOCC7)ccc6n4[C@@]4(c6noc(=O)[nH]6)C[C@@H]4C)[C@H]5C)c3=O)ccc21 [Example 16, 3-[(1S,2S)-1-[2-[(4S)-2-(4-fluoro-3,5-dimethylphenyl)-3-[3-[1-(2-methoxyethyl)indazol-5-yl]-2-oxoimidazol-1-yl]-4-methyl-6,7-dihydro-4H-pyrazolo[4,3-c]pyridine-5-carbonyl]-5-(oxan-4-yl)indol-1-yl]-2-methylcyclopropyl]-4H-1,2,4-oxadiazol-5-one] | 9.29
Cc1cc(-n2nc3c(c2-n2ccn(-c4ccc5c(cnn5CC5(C)COC5)c4)c2=O)[C@H](C)N(C(=O)c2cc4cc(C5CCOCC5)ccc4n2[C@@]2(c4noc(=O)[nH]4)C[C@@H]2C)CC3)cc(C)c1F [Example 17, 3-[(1S,2S)-1-[2-[(4S)-2-(4-fluoro-3,5-dimethylphenyl)-4-methyl-3-[3-[1-[(3-methyloxetan-3-yl)methyl]indazol-5-yl]-2-oxoimidazol-1-yl]-6,7-dihydro-4H-pyrazolo[4,3-c]pyridine-5-carbonyl]-5-(oxan-4-yl)indol-1-yl]-2-methylcyclopropyl]-4H-1,2,4-oxadiazol-5-one] | 9.00
Cc1cc(-n2nc3c(c2-n2ccn(-c4ccc5c(C)nsc5c4)c2=O)[C@H](C)N(C(=O)c2cc4cc(C5CCOCC5)ccc4n2[C@@]2(c4noc(=O)[nH]4)C[C@@H]2C)CC3)cc(C)c1F [Example 18, 3-[(1S,2S)-1-[2-[(4S)-2-(4-fluoro-3,5-dimethylphenyl)-4-methyl-3-[3-(3-methyl-1,2-benzothiazol-6-yl)-2-oxoimidazol-1-yl]-6,7-dihydro-4H-pyrazolo[4,3-c]pyridine-5-carbonyl]-5-(oxan-4-yl)indol-1-yl]-2-methylcyclopropyl]-4H-1,2,4-oxadiazol-5-one] | 8.89
Cc1cc(-n2ccn(-c3c4c(nn3-c3cc(C)c(F)c(C)c3)CCN(C(=O)c3cc5cc(C6CCOCC6)ccc5n3[C@@]3(c5noc(=O)[nH]5)C[C@@H]3C)[C@H]4C)c2=O)ccc1OCCO [Example 19, 3-[(1S,2S)-1-[2-[(4S)-2-(4-fluoro-3,5-dimethylphenyl)-3-[3-[4-(2-hydroxyethoxy)-3-methylphenyl]-2-oxoimidazol-1-yl]-4-methyl-6,7-dihydro-4H-pyrazolo[4,3-c]pyridine-5-carbonyl]-5-(oxan-4-yl)indol-1-yl]-2-methylcyclopropyl]-4H-1,2,4-oxadiazol-5-one] | 8.89
COc1cc(-n2ccn(-c3c4c(nn3-c3cc(C)c(F)c(C)c3)CCN(C(=O)c3cc5cc(C6CCOCC6)ccc5n3[C@@]3(c5noc(=O)[nH]5)C[C@@H]3C)[C@H]4C)c2=O)ccc1OC(C)(C)CO [Example 20, 3-[(1S,2S)-1-[2-[(4S)-2-(4-fluoro-3,5-dimethylphenyl)-3-[3-[4-(1-hydroxy-2-methylpropan-2-yl)oxy-3-methoxyphenyl]-2-oxoimidazol-1-yl]-4-methyl-6,7-dihydro-4H-pyrazolo[4,3-c]pyridine-5-carbonyl]-5-(oxan-4-yl)indol-1-yl]-2-methylcyclopropyl]-4H-1,2,4-oxadiazol-5-one] | 8.72
Cc1cc(-n2nc3c(c2-n2ccn(-c4ccc5c(cnn5[C@H]5CCOC5)c4)c2=O)[C@H](C)N(C(=O)c2cc4cc(C5CCOCC5)ccc4n2[C@@]2(c4noc(=O)[nH]4)C[C@@H]2C)CC3)cc(C)c1F [Example 22, 3-[(1S,2S)-1-[2-[(4S)-2-(4-fluoro-3,5-dimethylphenyl)-4-methyl-3-[2-oxo-3-[1-[(3S)-oxolan-3-yl]indazol-5-yl]imidazol-1-yl]-6,7-dihydro-4H-pyrazolo[4,3-c]pyridine-5-carbonyl]-5-(oxan-4-yl)indol-1-yl]-2-methylcyclopropyl]-4H-1,2,4-oxadiazol-5-one] | 8.64
Cc1cc(-n2nc3c(c2-n2ccn(-c4ccc5c(cnn5C)c4F)c2=O)[C@H](C)N(C(=O)c2cc4cc(C5CCOCC5)ccc4n2[C@@]2(c4noc(=O)[nH]4)C[C@@H]2C)CC3)cc(C)c1F [Example 23, 3-[(1S,2S)-1-[2-[(4S)-2-(4-fluoro-3,5-dimethylphenyl)-3-[3-(4-fluoro-1-methylindazol-5-yl)-2-oxoimidazol-1-yl]-4-methyl-6,7-dihydro-4H-pyrazolo[4,3-c]pyridine-5-carbonyl]-5-(oxan-4-yl)indol-1-yl]-2-methylcyclopropyl]-4H-1,2,4-oxadiazol-5-one] | 8.74
Cc1cc(-n2nc3c(c2-n2ccn(-c4ccc5c(c4)CCOC5(C)C)c2=O)[C@H](C)N(C(=O)c2cc4cc(C5CCOCC5)ccc4n2[C@@]2(c4noc(=O)[nH]4)C[C@@H]2C)CC3)cc(C)c1F [Example 24, 3-[(1S,2S)-1-[2-[(4S)-3-[3-(1,1-dimethyl-3,4-dihydroisochromen-6-yl)-2-oxoimidazol-1-yl]-2-(4-fluoro-3,5-dimethylphenyl)-4-methyl-6,7-dihydro-4H-pyrazolo[4,3-c]pyridine-5-carbonyl]-5-(oxan-4-yl)indol-1-yl]-2-methylcyclopropyl]-4H-1,2,4-oxadiazol-5-one] | 8.60
Cc1cc(-n2ccn(-c3c4c(nn3-c3cc(C)c(F)c(C)c3)CCN(C(=O)c3cc5cc(C6CCOCC6)ccc5n3[C@@]3(c5noc(=O)[nH]5)C[C@@H]3C)[C@H]4C)c2=O)ccc1-c1cc(N(C)C)ncn1 [Example 25, 3-[(1S,2S)-1-[2-[(4S)-3-[3-[4-[6-(dimethylamino)pyrimidin-4-yl]-3-methylphenyl]-2-oxoimidazol-1-yl]-2-(4-fluoro-3,5-dimethylphenyl)-4-methyl-6,7-dihydro-4H-pyrazolo[4,3-c]pyridine-5-carbonyl]-5-(oxan-4-yl)indol-1-yl]-2-methylcyclopropyl]-4H-1,2,4-oxadiazol-5-one] | 8.40
Cc1cc(-n2nc3c(c2-n2ccn(-c4ccc5c(cnn5CCF)c4)c2=O)[C@H](C)N(C(=O)c2cc4cc(C5CCOCC5)ccc4n2[C@@]2(c4noc(=O)[nH]4)C[C@@H]2C)CC3)cc(C)c1F [Example 26, 3-[(1S,2S)-1-[2-[(4S)-2-(4-fluoro-3,5-dimethylphenyl)-3-[3-[1-(2-fluoroethyl)indazol-5-yl]-2-oxoimidazol-1-yl]-4-methyl-6,7-dihydro-4H-pyrazolo[4,3-c]pyridine-5-carbonyl]-5-(oxan-4-yl)indol-1-yl]-2-methylcyclopropyl]-4H-1,2,4-oxadiazol-5-one] | 9.11
Cc1cc(-n2nc3c(c2-n2ccn(-c4cc5cnn(C)c5cc4F)c2=O)[C@H](C)N(C(=O)c2cc4cc(C5CCOCC5)ccc4n2[C@@]2(c4noc(=O)[nH]4)C[C@@H]2C)CC3)cc(C)c1F [Example 27, 3-[(1S,2S)-1-[2-[(4S)-2-(4-fluoro-3,5-dimethylphenyl)-3-[3-(6-fluoro-1-methylindazol-5-yl)-2-oxoimidazol-1-yl]-4-methyl-6,7-dihydro-4H-pyrazolo[4,3-c]pyridine-5-carbonyl]-5-(oxan-4-yl)indol-1-yl]-2-methylcyclopropyl]-4H-1,2,4-oxadiazol-5-one] | 8.64
Cc1cc(-n2nc3c(c2-n2ccn(-c4ccc5c(cnn5CC(F)(F)F)c4F)c2=O)[C@H](C)N(C(=O)c2cc4cc(C5CCOCC5)ccc4n2[C@@]2(c4noc(=O)[nH]4)C[C@@H]2C)CC3)cc(C)c1F [Example 28, 3-[(1S,2S)-1-[2-[(4S)-2-(4-fluoro-3,5-dimethylphenyl)-3-[3-[4-fluoro-1-(2,2,2-trifluoroethyl)indazol-5-yl]-2-oxoimidazol-1-yl]-4-methyl-6,7-dihydro-4H-pyrazolo[4,3-c]pyridine-5-carbonyl]-5-(oxan-4-yl)indol-1-yl]-2-methylcyclopropyl]-4H-1,2,4-oxadiazol-5-one] | 8.72
